Test results reported in patent publication US12673039B2, “Methods of inducing autophagy using coumarin derivatives and related compounds” (Buck Institute for Research on Aging, priority 2019, dated 2026).

Key:
UA44 worms = test: Dopaminergic neuronal loss in UA44 worms expressing human α-synuclein; type: in vivo, C. elegans
TFEB = test: qRT-PCR of tfeb and its targets in N27 neuronal cells; type: cell-based, rat
Description: FIG. 18, panels A-F: AIC106 (Autophagy Inducing Coumarin-106) induces transcription of TFEB and its targets in vitro in rat N27 neuronal cells and in vivo in C. elegans. Panel A) Relative fold change in TFEB promoter activity compared to DMSO-control was determined by quantifying luciferase activity in supernatants collected from rat N27 neuronal cells post-24 hour treatment with C1 (AIC106), D1 and D2. [n=3 independent experiments (mean±SEM), **p<0.01, by one-way ANOVA with Dunnett's multiple comparisons test]. Panel B) Chemical structure of AIC106 and its structural derivative D1 and D2. Panel C) Relative fold change in mRNA of tfeb and its targets compared to DMSO-control were quantified using qRT-PCR in N27 neuronal cells post-24 hour treatment with AIC106 [N=3 independent experiments (mean±SD). *p<0.05, **p<0.01 and ****p<0.0001, by two-way ANOVA with Sidak's multiple comparisons test]. Panel D) Changes in HLH-30 expression were measured by quantifying GFP intensity in an individual GFP-tagged HLH-30 strain (MAH235) post-24 hours treatment with AIC106 and DMSO-control. […] Panel E) HLH-30; GFP (MAH235) were monitored by fluorescence microscopy. Panel F) Relative fold change in mRNA of hlh-30 and its targets compared to DMSO-control were quantified using qRT-PCR in young adult wild type N2 worms post-24 hours treatment with AIC106. […]

AM141 worm = test: polyQ40 aggregation in AM141 worms; type: in vivo, C. elegans; details: dose dependent
Excerpt: FIG. 21, panels A-F: AIC106 prevents neuronal loss and proteotoxicity in strains expressing human neurotoxic proteins. Panel A) Dopaminergic neuronal loss in day-5 UA44 worms was quantified by scoring percentage of worms with intact 4-CEP neurons in AIC106 and DMSO-control treatment. [N=3 independent experiments (mean±SD). ***p<0.001, by one-way ANOVA with Tukey's multiple comparisons test]. Motor function in (panel B) day-7 NL5901 and (panel C) day-5 CL2006 worms were quantified by scoring number of thrashes for an individual worm over the period of 30 seconds (dots) in AIC106 and DMSO-control treatment. […] Panel D) Motor function in temperature sensitive (enhanced paralysis at 25° C.) CL4176 worms was determined by scoring percent of worms paralyzed in AIC106 and DMSO-control treatment. […] P-value calculated by Logrank test]. Panel F) Effect of AIC106 on polyQ40 aggregation was determined by scoring number of polyQ40-YFP fluorescent puncta in an individual AM141 worm treated with AIC106 and DMSO-control. […]
Synchronized populations of day-1 adult worms expressing reporter GFP transgene or stained with a dye/stain (Lysotracker and TMRM) and grown at 20° C. were transferred to compound or DMSO plates. Fluorescence expression was analyzed at the time specified for each individual strain (see figure legends). […] Fluorescence intensity normalized to worm area was measured using NIH ImageJ software. […]

Compound: O=c1oc2c3c4c(cc2c2c1CCC2)CCCN4CCC3 [C1, 2,3,6,7,10,11-Hexahydro-1H,5H-cyclopenta(3,4)(1)benzopyrano(6,7,8-ij)quinolizin-12(9H)-one]
- neuronal loss (UA44 worms; strain expressing human α-synuclein within dopaminergic neurons): prevented neuronal loss
- neuroprotection (UA44 worms; worms treated with hlh-30 RNAi): failed to show any neuroprotection
- TFEB mRNA levels (TFEB; 24 hour treatment): increased TFEB mRNA levels
- downstream TFEB target genes expression (TFEB; 24 hour treatment (FIG. 18, panel C)): increased expression of downstream TFEB target genes
- poly-Q40 aggregates (AM141 worm): significantly decreased poly-Q40 aggregates
